Reference: PubChem BioAssay (NCI)
“And” between values parts separate entries of the source, which are not always exact repeats. Identical values can stand only once.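 Cells were grown in 96-well plates and exposed to each compound for 48 hours at five concentrations; endpoints were interpolated linearly between bracketing concentrations, or set to the highest concentration if not reached. At the GI50, growth is halved. The concentration for full growth arrest is given as TGI.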

Test system: OVCAR-4 ovarian
Experiment: inhibition of tumour cell growth, NCI panel, 48 h

First: Nc1c(C(=O)Nc2ccccn2)sc2nc3c(cc12)C(=O)CCC3
Second: O=C(Nc1nc(-c2c[nH]c3ccccc23)cs1)c1n[nH]c(=O)c2ccccc12
The GI50 of the first is 3.3-fold lower: 6.26 µM for the first, 20.6 µM for the second.

Going from COc1ccc(Cl)cc1NC(=O)c1ccc(NC2=C(Cl)C(=O)N(Cc3ccccc3)C2=O)cc1 to COc1ccc(CNc2c3ccccc3nc3ccccc23)cc1F, the GI50 falls from > 100 µM to 3.28 µM.

Compared with Cc1cccc(NC2=C(Cl)C(=O)c3nc(C)ccc3C2=O)c1, CC(C)=CCC1=C(O)c2ccccc2C(=O)C1=O is 9.8-fold higher in GI50: 1.2 µM for the first, 11.7 µM for the second.

Going from COc1cc2c(cc1OCCCN1CCN(CCCOc3cc4c(cc3OC)C(=O)N3CC(F)(F)C[C@H]3C=N4)CC1)N=C[C@@H]1CC(F)(F)CN1C2=O to COC(=O)C1=CN(CC2=CC(=O)C(C)=CC2=O)C=C(C(=O)OC)C1c1ccccc1OC, the GI50 rises from 12.7 µM to 22.5 µM (1.8-fold).

Compared with COC(=O)/C=C/c1cc(OC(C)=O)c2c(c1)C(C(=O)OC)C(c1ccc(OC(C)=O)c(OC(C)=O)c1)O2 (configuration not stated), NC(=O)c1cc(I)ccc1NC(=O)/C=C/c1ccccc1 is 5.3-fold higher in GI50: 0.345 µM for the first, 1.84 µM for the second.

C=C(C)C(C1C=C(CCC(C=O)=C(C)C)C(=O)O1)C1(OC)C=C(C)C(=O)O1 (configuration not stated) and C=CC12CCN(CC1)C(C(O)c1ccnc3ccc(OC)cc13)C2 (configuration not stated) cannot be ordered by GI50: > 100 µM for the first, > 100 µM for the second.

Going from NC(=S)N/N=C/c1ncccc1O to O=C(Nc1ncc(Cc2cccc(C(F)(F)F)c2)s1)c1ccc2c(c1)OCCO2, the GI50 falls from 5.21 µM to 0.608 µM (8.6-fold).

CN(C)CCN1CCC(Cc2ccccc2)CC1 and CO[C@@H]1CC[C@]2(C)OC[C@H](C)[C@@H]3C[C@@H](C)[C@@H](OC(C)=O)[C@@H]4[C@H]3[C@@H]2O[C@H]4C[C@@]1(C)O cannot be ordered by GI50: > 80 µM for the first, > 100 µM for the second.

Nc1c(C(=O)Nc2ccccn2)sc2nc3c(cc12)C(=O)CCC3 and O=C(Nc1nc(-c2c[nH]c3ccccc23)cs1)c1n[nH]c(=O)c2ccccc12 cannot be ordered by TGI: > 100 µM for the first, > 100 µM for the second.

Going from COc1ccc(Cl)cc1NC(=O)c1ccc(NC2=C(Cl)C(=O)N(Cc3ccccc3)C2=O)cc1 to O=C(CNc1ccc(Cl)cc1Cl)Nn1c(-c2ccccc2)nc2ccccc2c1=O, the TGI falls from > 100 µM to 32.2 µM.

Going from Cc1cccc(NC2=C(Cl)C(=O)c3nc(C)ccc3C2=O)c1 to CC(C)=CCC1=C(O)c2ccccc2C(=O)C1=O, the TGI rises from 2.45 µM to > 100 µM.

First: COc1cc2c(cc1OCCCN1CCN(CCCOc3cc4c(cc3OC)C(=O)N3CC(F)(F)C[C@H]3C=N4)CC1)N=C[C@@H]1CC(F)(F)CN1C2=O
Second: COc1cc2c3c(n(C)c(=O)c2cc1OC)-c1cc2c(cc1C3=O)OCO2
The TGI of the first is lower: 33.7 µM for the first, > 100 µM for the second.

First: CCCCCCCCSC1=C(Cl)C(=O)C(OC)=C(OC)C1=O
Second: COC(=O)C1=CN(CC2=CC(=O)C(C)=CC2=O)C=C(C(=O)OC)C1c1ccccc1OC
The TGI of the first is lower: 29.8 µM for the first, > 67.4 µM for the second.

COc1cccc2c1O/C(=C\c1ccc([N+](=O)[O-])s1)C2=O and O=[N+]([O-])c1ccccc1N=Nc1c(O)[nH]c2c(Cl)cc(Cl)cc12 cannot be ordered by TGI: > 100 µM for the first, > 100 µM for the second.

First: COC(=O)/C=C/c1cc(OC(C)=O)c2c(c1)C(C(=O)OC)C(c1ccc(OC(C)=O)c(OC(C)=O)c1)O2 (configuration not stated)
Second: COc1ccc(/C=C\c2cc(OC)c(OC)c(OC)c2)cc1OCC(=O)O
The TGI of the first is lower: 49.7 µM for the first, > 86.1 µM for the second.

First: O=C(O)c1ccc(CNCc2ccccc2)cc1
Second: COc1ccc(CNc2c3ccccc3nc3ccccc23)cc1F
The TGI of the first is higher: > 100 µM for the first, 12.5 µM for the second.

C=C(C)C(C1C=C(CCC(C=O)=C(C)C)C(=O)O1)C1(OC)C=C(C)C(=O)O1 (configuration not stated) and CSC[C@H](NC(=O)COc1cccc2cnccc12)C(=O)NC(Cc1ccccc1)C(O)C(=O)N1CSC[C@H]1C(=O)NC(C)(C)C (some centres not stated) cannot be ordered by TGI: > 100 µM for the first, > 100 µM for the second.

Compared with NC(=S)N/N=C/c1ncccc1O, NC(=O)c1cc(I)ccc1NC(=O)/C=C/c1ccccc1 is lower in TGI: > 929 µM for the first, 30.5 µM for the second.

O=C(CC(=O)Nc1ccccc1)NNC(Sc1ccccc1)c1cc(N=Nc2ccc(Br)cc2)ccc1O (configuration not stated) and O=C(Nc1ncc(Cc2cccc(C(F)(F)F)c2)s1)c1ccc2c(c1)OCCO2 cannot be ordered by TGI: > 10 µM for the first, > 100 µM for the second.

Cc1cc(C(=O)CSC(=S)SC(C)(C)C)ccc1Cl and CNc1cc2oc(=O)cc(C)c2cc1C cannot be ordered by TGI: > 100 µM for the first, > 100 µM for the second.

C=CC12CCN(CC1)C(C(O)c1ccnc3ccc(OC)cc13)C2 (configuration not stated) and CN(C)CCN1CCC(Cc2ccccc2)CC1 cannot be ordered by TGI: > 100 µM for the first, > 80 µM for the second.

CO[C@@H]1CC[C@]2(C)OC[C@H](C)[C@@H]3C[C@@H](C)[C@@H](OC(C)=O)[C@@H]4[C@H]3[C@@H]2O[C@H]4C[C@@]1(C)O was tested, and the TGI was > 100 µM.

For COc1ccc2c(=O)oc3c(OC)cc(CCN(C)C)c4c(=O)oc1c2c34, the GI50 was 3.47 µM and 8.43 µM.

With COc1ccc2c(=O)oc3c(OC)cc(CCN(C)C)c4c(=O)oc1c2c34 the TGI was 12.3 µM and 16.1 µM.

Test system: OVCAR-8 ovarian
Experiment: inhibition of tumour cell growth, NCI panel, 48 h

Compared with Nc1c(C(=O)Nc2ccccn2)sc2nc3c(cc12)C(=O)CCC3, COc1cccc2c1O/C(=C\c1ccc([N+](=O)[O-])s1)C2=O is 2.6-fold lower in GI50: 6.52 µM for the first, 2.54 µM for the second.

COc1ccc(Cl)cc1NC(=O)c1ccc(NC2=C(Cl)C(=O)N(Cc3ccccc3)C2=O)cc1 and COC(=O)C1=CN(CC2=CC(=O)C(C)=CC2=O)C=C(C(=O)OC)C1c1ccccc1OC are within 1.5-fold of each other in GI50: 19.4 µM for the first, 17.6 µM for the second.

COc1cc2c(cc1OCCCN1CCN(CCCOc3cc4c(cc3OC)C(=O)N3CC(F)(F)C[C@H]3C=N4)CC1)N=C[C@@H]1CC(F)(F)CN1C2=O showed a GI50 of 6.3 µM.

Nc1c(C(=O)Nc2ccccn2)sc2nc3c(cc12)C(=O)CCC3 and COc1cccc2c1O/C(=C\c1ccc([N+](=O)[O-])s1)C2=O cannot be ordered by TGI: > 100 µM for the first, > 24.9 µM for the second.

Going from COc1ccc(Cl)cc1NC(=O)c1ccc(NC2=C(Cl)C(=O)N(Cc3ccccc3)C2=O)cc1 to COC(=O)C1=CN(CC2=CC(=O)C(C)=CC2=O)C=C(C(=O)OC)C1c1ccccc1OC, the TGI falls from > 100 µM to 38.9 µM.

COc1cc2c(cc1OCCCN1CCN(CCCOc3cc4c(cc3OC)C(=O)N3CC(F)(F)C[C@H]3C=N4)CC1)N=C[C@@H]1CC(F)(F)CN1C2=O and CCCCCCCCSC1=C(Cl)C(=O)C(OC)=C(OC)C1=O are within 1.5-fold of each other in TGI: 26.7 µM for the first, 30.9 µM for the second.

With COc1ccc2c(=O)oc3c(OC)cc(CCN(C)C)c4c(=O)oc1c2c34 the TGI was 30.7 µM and 17.2 µM.
